# Source: patent publication US4622421A, “Phenylalkanoic acid derivatives and their use” (Sankyo Company Limited, priority 1983, dated 1986)
# Read-outs that look alike come from different tables or passages of the source.
# Assays:
# [1] = system: pressure-induced pain threshold; assay: Pain test for analgesic activity (modified Randall and Selitto, Brewers' yeast-inflamed paw); type: in vivo, Male Wistar-Imamichi rats; conditions: read-out: Analgesic activity, ED50
# Method: This test was conducted according to a modification of the method reported by L. O. Randall and J. J. Selitto in Arch. Int.
# Male Wistar-Imamichi rats of 4 weeks of age and weighing 60-90 g were injected with 0.1 ml of a 20% by weight suspension of Brewers' yeast in the right hind paw. […] Each of these was given orally a test compound as an aqueous tragacanth suspension. 1 and 2 hours after administration of the test compound, the pain threshold was determined by observing pain responses (such as struggling or squeaking) when the inflamed or normal paw was subjected to pressure by a machine (Ugo-Basile).
# [2] = system: carrageenin-induced inflammation (hind paw oedema); assay: Carrageenin oedema test for anti-inflammatory activity; type: in vivo, Male Wistar rats; conditions: po, read-out: Anti-inflammatory activity, ID50
# Method: Male Wistar rats weighing 120-150 g were fasted overnight and then received a test compound per os as an aqueous tragacanth suspension. 30 minutes later, inflammation was induced by the subcutaneous injection of 0.05 ml of a 1% w/v carrageenin suspension into the plantar tissue of a hind paw of each rat [Winter et al., Proc. Soc. […] The anti-oedema activity was measured volumetrically, by assessing the response, as calculated from the following equation: Response=(V-Vo)/Vo where Vo and V represent, respectively, the paw volume immediately before and 3 hours after the carrageenin injection.
# [3] = system: IgM antibody-producing cells in the spleen; assay: Test for immuno-regulatory activity (Cunningham's method, IgM antibody production to sheep erythrocytes); type: in vivo, female mice of the BALB/c strain; conditions: mouse, oral, dose from 1 to 10 mg per kg, spleen after 5 days
# Method: The immuno-regulatory activity of (±)-2-[4-(cis-2-hydroxycyclohexylmethyl)phenyl]propionic acid was tested by Cunningham's method [A. J. Cunningham and A. Szenberg, Immunology 14, 599 (1968)]. The test compound was administered orally to female mice of the BALB/c strain and simultaneously sheep erythrocytes were administered intraperitonially, in order to sensitise the animal to these erythrocytes as an antigen. After 5 days, the spleen of the experimental animal was extracted and the number of IgM antibody-producingcells in the spleen cells was calculated.
# [4] = rat, oral, pain threshold 1 and 2 hours after administration, Litchfield and Wilcoxon
# [5] = rat, per os, paw volume 3 hours after carrageenin, dose inhibiting the response by 50%
smiles,measurement,setting,value
"CC(C(=O)O)c1ccc(C[C@@H]2CCCC[C@@H]2O)cc1 (mixture of isomers) [Compound 1, (±)-2-[4-(cis-2-hydroxycyclohexylmethyl)phenyl]propionic acid]",ED50,[1]; [4],0.86 mg/kg
same,ED50,[2]; [5],3.3 mg/kg
same,percent inhibition of antibody production,[3],≥ 50%
"CC(C(=O)O)c1ccc(C[C@@H]2CCCC[C@H]2O)cc1 (mixture of isomers) [Compound 2, (±)-2-[4-(trans-2-hydroxycyclohexylmethyl)phenyl]propionic acid]",ED50,[1]; [4],0.76 mg/kg
same,ED50,[2]; [5],0.96 mg/kg
"COc1ccc2c(c1)c(CC(=O)O)c(C)n2C(=O)c1ccc(Cl)cc1 [Compound 3, Indomethacin, reference compound]",ED50,"[1]; Rattus norvegicus, po",1.6 mg/kg
same,ED50,"[2]; Rattus norvegicus, 3 h",2.2 mg/kg
